Data set [1] in a line: Tissue exposure after oral administration, 8 days. It counts as in vivo. As to conditions: cynomolgus monkey; for level at time molar at 4 h: 4 hours after the last dose. The protocol:
To determine tissue exposure following oral administration of Peptide X, Cynomolgus monkeys were dosed with Peptide X PO QD for 8 days at 12.5 mg/kg, 25 mg/kg or 75 mg/kg. The vehicle was 50 mM phosphate buffer, pH 7. Oral bioavailability in cyno (% F) was about 0.3%. Samples were collected 4 hours after the last dose.

For data set [2], the system named is BALB/c mice, chronic DSS colitis. Kind of data set: 15 day chronic DSS colitis mouse model. It counts as in vivo. As to conditions: all doses: 55, 17 or 6 mg/kg/day in drinking water. The protocol: To further evaluate the efficacy of peptides of the present invention in treating colitis, a chronic DSS colitis mouse model was used to examine the effects of orally administered Peptide X or another peptide, Peptide XX, as compared to vehicle control or the antibodies, MECA 367 and DATK32. Peptide XX is a dimer having the following structure, where DIG links the two peptide monomers by their C-termini:
In this 15 day chronic DSS colitis study, BALB/c mice were treated continuously with 2.5% DSS. Peptide X dosing was 55 mg/kg/day, 17 mg/kg/day or 6 mg/kg/day in drinking water. Peptide XX dosing was 10 mg/kg PO BID plus 0.2 mg/ml in drinking water. The anti-α4β7 Ab DATK32 was dosed 25 mg/kg IP every 3 days, and the anti-MAdCAM Ab MECA 367 was dosed 8 mg/kg IP daily. After takedown, distal colon sections were fixed for histopathology and processed for β7+ cell IH staining using the anti-β7 antibody M293.

One compound from patent publication US9809623B2, “α4β7 peptide monomer and dimer antagonists” (Protagonist Therapeutics, Inc., priority 2014, dated 2017) can be followed below.

Read-outs that look alike come from different tables or passages of the source. Numbered stars: 1 amine (or outer) side, 2 acyl side, 3 side chain; on linkers, the order of the positions; unused ones are H or OH. Bridge positions count the residues as written; N and C are the ends. Square brackets hold non-standard residues; d marks the D form. Peptide text beside a SMILES is read from it. I, II: the chains in the order shown. ξ: configuration not given here. Phe(4-tBu) = CC(C)(C)c1ccc(C[C@H](N)C(=O)O)cc1; Diglycolyl = O=C(COCC(=O)[*:2])[*:1]; NMeR = CN[C@@H](CCCNC(=N)N)C(=O)O; β3hE = N[C@@H](CCC(=O)O)CC(=O)O; Thr(3ξ) = CC(O)[C@H](N)C(=O)O; Pen = CC(C)(S)[C@H](N)C(=O)O

Broadly, the bioavailability is the share of a dose that reaches the circulation, judged against a reference dose that is usually intravenous. Turning to `CC(=O)N[C@@H]1C(=O)N(C)[C@@H](CCCNC(=N)N)C(=O)N[C@@H](CO)C(=O)N[C@@H](CC(=O)O)C(=O)N[C@@H](C(C)O)C(=O)N[C@@H](CC(C)C)C(=O)N[C@H](C(=O)N[C@@H](Cc2ccc(C(C)(C)C)cc2)C(=O)N[C@@H](CCC(=O)O)CC(=O)N[C@H](CCCCNC(=O)COCC(=O)NCCCC[C@@H](NC(=O)C[C@H](CCC(=O)O)NC(=O)[C@H](Cc2ccc(C(C)(C)C)cc2)NC(=O)[C@H]2NC(=O)[C@H](CC(C)C)NC(=O)[C@H](C(C)O)NC(=O)[C@H](CC(=O)O)NC(=O)[C@H](CO)NC(=O)[C@H](CCCNC(=N)N)N(C)C(=O)[C@@H](NC(C)=O)C(C)(C)SSC2(C)C)C(N)=O)C(N)=O)C(C)(C)SSC1(C)C` (stereo partly drawn) [Peptide X, [Ac-Pen-(N-Me-Arg)-Ser-Asp-Thr-Leu-Pen-(Phe(4-tBu))-(β-homoGlu)-(D-Lys)]2-DIG] (I: Ac-[Pen][NMeR]SD[Thr(3ξ)]L[Pen][Phe(4-tBu)][β3hE][dK]-NH2 / II: Ac-[Pen][NMeR]SD[Thr(3ξ)]L[Pen][Phe(4-tBu)][β3hE][dK]-NH2; disulfide I:1-I:7, II:1-II:7; linker I:10-II:10 via Diglycolyl), the level at time molar at 4 h in data set [1] (colon, 12.5 mg/kg PO QD 8 days, read-out: Peptide X exposure, Colon) turned out to be 4160 nM; in data set [1] (colon, 25 mg/kg PO QD 8 days, read-out: Peptide X exposure, Colon), 1550 nM; in data set [1] (colon, 75 mg/kg PO QD 8 days, read-out: Peptide X exposure, Colon), 15500 nM; in data set [1] (mesenteric lymph node, 12.5 mg/kg PO QD 8 days, read-out: Peptide X exposure, Mesenteric Lymph Node), 1500 nM; in data set [1] (mesenteric lymph node, 25 mg/kg PO QD 8 days, read-out: Peptide X exposure, Mesenteric Lymph Node), 138 nM; in data set [1] (mesenteric lymph node, 75 mg/kg PO QD 8 days, read-out: Peptide X exposure, Mesenteric Lymph Node) it was 1980 nM. The level at time molar at 4 h is 2 nM in data set [1] (plasma, 12.5 mg/kg PO QD 8 days, read-out: Peptide X exposure, Plasma); 5 nM in data set [1] (plasma, 25 mg/kg PO QD 8 days, read-out: Peptide X exposure, Plasma); 21 nM in data set [1] (plasma, 75 mg/kg PO QD 8 days, read-out: Peptide X exposure, Plasma); 661 nM in data set [1] (small intestine, 12.5 mg/kg PO QD 8 days, read-out: Peptide X exposure, Small Intestine); 293 nM in data set [1] (small intestine, 25 mg/kg PO QD 8 days, read-out: Peptide X exposure, Small Intestine); 7840 nM in data set [1] (small intestine, 75 mg/kg PO QD 8 days, read-out: Peptide X exposure, Small Intestine). Also, in data set [1] (in vivo, oral, read-out: Oral bioavailability in cyno (% F)), the bioavailability was approximately 0.3%. Further, the “infiltration of B7+ cells into the lamina propria of the distal colon” value in data set [2] is “reduced infiltration”.
